Measurements from PMC7221760, “Structural and Functional Characterization of NadR from Lactococcus lactis” (Molecules, 2020).
Each block holds one molecule with its values, some of them ahead of it.

Columns and labels:
NadRLl [1] = target: T1, NadRLl (Lactococcus lactis, UniProt Q9CE60); test: X-ray crystal structure, […] Å; format: binding; details: co-crystallised with 5 mM NAD and 5 mM Mg-AMP-PNP, not the active sites
T1 construct: gene nadR; NMNAT domain residues 8-177, RNK domain residues 178-379
T1 sequence (Q9CE60 1-379): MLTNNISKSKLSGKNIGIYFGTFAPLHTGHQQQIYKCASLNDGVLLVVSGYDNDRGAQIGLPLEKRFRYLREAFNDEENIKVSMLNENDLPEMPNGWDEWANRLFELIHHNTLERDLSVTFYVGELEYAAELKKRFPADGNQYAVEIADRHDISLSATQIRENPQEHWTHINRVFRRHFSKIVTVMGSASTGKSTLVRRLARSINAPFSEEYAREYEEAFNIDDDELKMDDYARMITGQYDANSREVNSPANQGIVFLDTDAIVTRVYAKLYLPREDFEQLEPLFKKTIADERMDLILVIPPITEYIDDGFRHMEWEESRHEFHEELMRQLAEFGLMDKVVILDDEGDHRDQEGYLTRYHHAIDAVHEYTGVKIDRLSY

NadRLl [2] = target: T1, NadRLl; test: isothermal titration calorimetry; format: binding; details: read-out: Dissociation Constant-KD
From the text: isothermal titration calorimetry on NadRLl

NadRLl [3] = target: T1, NadRLl; test: LDH-coupled NADH absorbance at […] nm (NMN to NAD); format: biochemical; details: substrate inhibition; 10 mM Mg-ATP; 100 mM Tris/HCl pH 7.5; 25 °C
NadRLl [4] = target: T1, NadRLl; test: X-ray crystal structure, […] Å; format: binding; details: 5 mM NMN, pH 6.5; site between the two domains, not the active sites
NadRLl [5] = target: T1, NadRLl; test: LDH-coupled NADH absorbance at […] nm (NR to NAD); format: biochemical; details: substrate inhibition; 10 mM Mg-ATP; 100 mM Tris/HCl pH 7.5; 25 °C
NadRLl [6] = target: T1, NadRLl; test: X-ray crystal structure, […] Å; format: binding; details: 5 mM NR, pH 6.5; site between the two domains, not the active sites
purified protein [7] = substrate: NC(=O)c1ccc[n+]([C@@H]2O[C@H](CO)[C@@H](O)[C@H]2O)c1; test: purified protein; format: biochemical, Lactococcus lactis; details: 10 mM Mg-ATP, 100 mM Tris/HCl pH 7.5, 25 °C, substrate-inhibition model
purified protein [8] = substrate: NC(=O)c1ccc[n+]([C@@H]2O[C@H](COP(=O)([O-])O)[C@@H](O)[C@H]2O)c1; test: purified protein; format: biochemical, Lactococcus lactis; details: 10 mM Mg-ATP, 100 mM Tris/HCl pH 7.5, 25 °C, substrate-inhibition model
purified protein [9] = substrate: Nc1ncnc2c1ncn2[C@@H]1O[C@H](COP(=O)(O)OP(=O)(O)OP(=O)(O)O)[C@@H](O)[C@H]1O; test: purified protein; format: biochemical, Lactococcus lactis; details: 1 mM NMN, 100 mM Tris/HCl pH 7.5, 25 °C, Mg-ATP, Hill coefficient 2.2 ± 0.3

Molecule: Nc1ncnc2c1ncn2[C@@H]1O[C@H](COP(=O)(O)OP(=O)(O)NP(=O)(O)O)[C@@H](O)[C@H]1O [AMP-PNP]
- X-ray crystal structure, 3.00 Å (NadRLl [1]; mixture with NAD at site between the two domains): we observed a mixture of NAD and AMP-PNP bound at this location
- Kd (NadRLl [2]): 13 ± 1 µM

Molecule: NC(=O)c1ccc[n+]([C@@H]2O[C@H](COP(=O)(O)OP(=O)(O)OC[C@H]3O[C@@H](n4cnc5c(N)ncnc54)[C@H](O)[C@@H]3O)[C@@H](O)[C@H]2O)c1 [NAD]
- X-ray crystal structure, 3.00 Å (NadRLl [1]; mixture with AMP-PNP at site between the two domains): we observed a mixture of NAD and AMP-PNP bound at this location

- Ki (NadRLl [3]): 25400 ± 10800 µM
Molecule: NC(=O)c1ccc[n+]([C@@H]2O[C@H](COP(=O)([O-])O)[C@@H](O)[C@H]2O)c1 [nicotinamide mononucleotide]
- X-ray crystal structure, 2.70 Å (NadRLl [4]): we obtained structures in the presence of NMN and NR, which both have bound substrates

- Ki (NadRLl [5]): 31400 ± 8100 µM
Molecule: NC(=O)c1ccc[n+]([C@@H]2O[C@H](CO)[C@@H](O)[C@H]2O)c1 [nicotinamide riboside]
- X-ray crystal structure, 2.30 Å (NadRLl [6]): we obtained structures in the presence of NMN and NR, which both have bound substrates

- Kd (NadRLl [2]): 63 ± 1 µM
Molecule: Nc1ncnc2c1ncn2[C@@H]1O[C@H](COP(=O)(O)OP(=O)(O)OP(=O)(O)O)[C@@H](O)[C@H]1O [ATP]

B1: NadRLl (Lactococcus lactis subsp. lactis Il1403) (protein)
chain: MLTNNISKSKLSGKNIGIYFGTFAPLHTGHQQQIYKCASLNDGVLLVVSGYDNDRGAQIGLPLEKRFRYLREAFNDEENIKVSMLNENDLPEMPNGWDEWANRLFELIHHNTLERDLSVTFYVGELEYAAELKKRFPADGNQYAVEIADRHDISLSATQIRENPQEHWTHINRVFRRHFSKIVTVMGSASTGKSTLVRRLARSINAPFSEEYAREYEEAFNIDDDELKMDDYARMITGQYDANSREVNSPANQGIVFLDTDAIVTRVYAKLYLPREDFEQLEPLFKKTIADERMDLILVIPPITEYIDDGFRHMEWEESRHEFHEELMRQLAEFGLMDKVVILDDEGDHRDQEGYLTRYHHAIDAVHEYTGVKIDRLSY
notes: NMNAT domain residues 8-177, RNK domain residues 178-379
- Km (purified protein [7]): 600 ± 100 µM
- Vmax (purified protein [7]): 0.4 µmol/min/mg
- Km (purified protein [8]): 500 ± 100 µM
- Vmax (purified protein [8]): 1.5 µmol/min/mg
- K0.5 (purified protein [9]): 5.2 ± 0.6 mM
- Vmax (purified protein [9]): 1.2 µmol/min/mg
